These results are taken from patent US8901138B2, “Sulfoximine substituted quinazolines for pharmaceutical compositions” (Boehringer Ingelheim International GmbH, priority 2012, dated 2014).

The target of assay [1] is MNK1a (Homo sapiens, UniProt Q9BUB5). In words: MNK1 in vitro kinase assay (assay 2), Z'-LYTE. The format is biochemical. The following applies: for inhibition at 1 µM: compound concentration of 1 μM; for IC50: pre-activated GST-MNK1a. Put shortly:
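Pre-activated GST-MNK1a (13.5-54 ng) with 2 μM Ser/Thr 07 FRET peptide in 50 mM HEPES pH 7.5, 10 mM MgCl2, 2 mM MnCl2, 1 mM EGTA, 1 mM DTT, 1% DMSO; 1 h kinase then 1 h development at room temperature. Coumarin/fluorescein emission ratio gives % phosphorylation; sigmoidal dose-response fit.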

The target of assay [2] is T1, MNK2a (Homo sapiens, UniProt Q9HBH9).
T1 construct: made in house
Put plainly: MNK2a in vitro kinase assay (assay 1), ADP-Glo. The format is biochemical. The following applies: preactivated GST-MNK2a, 20 μM ATP, read-out: MNK2 IC50. The essentials: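 Preactivated GST-MNK2a (10 nM) with eIF4E peptide (25 μM) and ATP (20 μM) in HEPES/DTT/MgCl2 buffer, 90 min at room temperature, final DMSO <3%. ADP formed read by ADP-Glo luminescence and normalised to vehicle and 20 μM reference-inhibitor controls; IC50 from dose-response curves.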
(ADP-Glo turns the ADP formed in a reaction into a luminescent signal.)

Sequence of MNK1a (Q9BUB5 1-424 isoform Q9BUB5-2): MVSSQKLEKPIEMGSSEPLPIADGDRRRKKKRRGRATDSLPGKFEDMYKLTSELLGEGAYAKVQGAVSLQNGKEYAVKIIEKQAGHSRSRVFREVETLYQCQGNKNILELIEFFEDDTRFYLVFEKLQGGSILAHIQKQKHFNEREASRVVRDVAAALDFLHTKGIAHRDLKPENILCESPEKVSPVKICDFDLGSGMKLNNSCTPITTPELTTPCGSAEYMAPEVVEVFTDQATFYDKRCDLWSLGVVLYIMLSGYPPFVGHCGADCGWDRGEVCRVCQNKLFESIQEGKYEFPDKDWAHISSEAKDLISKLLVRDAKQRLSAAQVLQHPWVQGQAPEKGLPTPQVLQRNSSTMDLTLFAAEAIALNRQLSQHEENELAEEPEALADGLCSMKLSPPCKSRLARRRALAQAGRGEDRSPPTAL
T1 sequence (Q9HBH9 whole entry): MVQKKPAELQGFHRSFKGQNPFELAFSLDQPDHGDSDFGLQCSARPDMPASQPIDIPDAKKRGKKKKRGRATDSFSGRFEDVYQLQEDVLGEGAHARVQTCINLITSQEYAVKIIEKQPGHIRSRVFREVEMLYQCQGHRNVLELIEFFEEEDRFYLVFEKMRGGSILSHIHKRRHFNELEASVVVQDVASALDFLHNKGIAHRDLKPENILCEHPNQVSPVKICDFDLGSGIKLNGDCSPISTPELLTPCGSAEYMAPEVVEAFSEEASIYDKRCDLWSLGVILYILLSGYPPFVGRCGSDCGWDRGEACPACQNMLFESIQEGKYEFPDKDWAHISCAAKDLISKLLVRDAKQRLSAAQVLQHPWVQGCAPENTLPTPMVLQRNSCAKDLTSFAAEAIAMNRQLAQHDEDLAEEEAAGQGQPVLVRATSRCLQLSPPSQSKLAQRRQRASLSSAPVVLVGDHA

The term inhibition denotes the change of the read-out against control, counted positive when it falls. By IC50 is commonly meant the concentration that inhibits the measured activity by half. For `Cc1cc(N=S2(=O)CCCC2)cc2ncnc(Nc3ccc(F)cc3O[C@@H]3CCCN(C(=O)OC(C)(C)C)C3)c12` [Example 2.66], in assay [1], the inhibition at 1 µM stood at 88%. Also, the IC50 in assay [2] amounted to 16 nM.

On to `CO[C@@H]1CCCC[C@H]1Oc1cc(F)ccc1Nc1ncnc2cc(N=S(C)(C)=O)cc(C)c12` [Example 2.67], for which the inhibition at 1 µM in assay [1] came out at 85%. Also, the IC50 in assay [2] was determined as 3 nM.

For the compound `Cc1cc(N=[S@](C)(=O)c2ccccc2)cc2ncnc(Nc3ccc(F)cc3O[C@H]3CCOC3)c12` [Example 2.72], the inhibition at 1 µM in assay [1] is 71%. Besides, the IC50 in assay [2] stood at 30 nM.

As for `CO[C@H]1CC[C@H](Oc2cc(F)ccc2Nc2ncnc3cc(N=S(C)(C)=O)cc(C)c23)CC1` [Example 2.75], in assay [1], the inhibition at 1 µM was found to be 100% and half-maximal inhibition (IC50) was put at 75 nM. In assay [2], the IC50 turned out to be 3 nM.

As for `CO[C@@H]1CO[C@H]2[C@@H]1OC[C@H]2Oc1cc(F)ccc1Nc1ncnc2cc(N=S(C)(C)=O)cc(F)c12` [Example 2.76], in assay [1], the inhibition at 1 µM is 100% and the IC50 stood at 57 nM. For the same compound, the IC50 in assay [2] turned out to be 5 nM.

Turning to `CC(C)(C)OC(=O)N1CCC[C@@H](Oc2ncccc2Nc2ncnc3cc(N=S(C)(C)=O)cc(F)c23)C1` [Example 2.77], in assay [1], the inhibition at 1 µM is 55%. Moreover, the IC50 in assay [2] was 164 nM.

On to `Cc1cc(N=S(C)(C)=O)cc2ncnc(Nc3ccc(F)cc3O[C@H]3CO[C@H]4[C@@H]3OC[C@@H]4O)c12` [Example 2.80], for which the inhibition at 1 µM in assay [1] was 73%. Besides, the IC50 in assay [2] amounted to 19 nM.

With `CCS(C)(=O)=Nc1cc(C)c2c(Nc3ccc(F)cc3O[C@H]3CC[C@H](OC)CC3)ncnc2c1` (stereo partly shown) [Example 2.81], the inhibition at 1 µM in assay [1] is 92%. In addition, in assay [2], the IC50 worked out at 4 nM.

Turning to `CO[C@H]1CC[C@H](Oc2cc(F)ccc2Nc2ncnc3cc(N=S4(=O)CCCCC4)cc(C)c23)CC1` [Example 2.84], the inhibition at 1 µM in assay [1] worked out at 91%. Further, in assay [2], the IC50 was 2 nM.

For `COCCS(C)(=O)=Nc1cc(C)c2c(Nc3ccc(F)cc3O[C@H]3CC[C@H](OC)CC3)ncnc2c1` (stereo partly shown) [Example 2.87], in assay [1], the inhibition at 1 µM is 79%. The IC50 in assay [2] was found to be 7 nM.

Turning to `Cc1cc(N=S2(=O)CCCC2)cc2ncnc(Nc3cccnc3OC3COCCOC3)c12` [Example 2.88], the inhibition at 1 µM in assay [1] was 95%. Also, the IC50 in assay [2] was 5 nM.

For the compound `Cc1cc(N=S(C)(C)=O)cc2ncnc(Nc3cccnc3OC3COCCOC3)c12` [Example 2.91], in assay [1], the inhibition at 1 µM turned out to be 93%. Also, in assay [2], the IC50 was 7 nM.

As to `CCS(=O)(CC)=Nc1cc(C)c2c(Nc3ccc(F)cc3O[C@H]3CCOC3)ncnc2c1` [Example 2.92], in assay [1], the inhibition at 1 µM was determined as 83%. In assay [2], the IC50 came to 13 nM.

Turning to `Cc1cc(N=S2(=O)CCC(O)CC2)cc2ncnc(Nc3ccc(F)cc3O[C@@H]3CO[C@@H]4CCO[C@@H]43)c12` (stereo partly shown) [Example 2.94], the inhibition at 1 µM in assay [1] was found to be 98%. Moreover, the IC50 in assay [2] came out at 1 nM.

Consider `Cc1cc(N=S(C)(=O)c2cccnc2)cc2ncnc(Nc3ccc(F)cc3O[C@@H]3CO[C@@H]4CCO[C@@H]43)c12` (stereo partly shown) [Example 2.95], for which the IC50 amounted to 33 nM in assay [1] and 4 nM in assay [2].

For the compound `Cc1cc(N=S2(=O)CCC(O)CC2)cc2ncnc(Nc3ccc(F)cc3O[C@H]3CCOC3)c12` (stereo partly shown) [Example 2.97], the inhibition at 1 µM in assay [1] worked out at 93%. Moreover, the IC50 in assay [2] was 2 nM.

With `Cc1cc(N=S2(=O)CCC2)cc2ncnc(Nc3ccc(F)cc3O[C@H]3CCOC3)c12` [Example 2.98], the inhibition at 1 µM in assay [1] came to 95%. The IC50 in assay [2] turned out to be 1 nM.

In the case of `Cc1cc(N=S(C)(=O)C2CCOCC2)cc2ncnc(Nc3ccc(F)cc3O[C@@H]3CO[C@@H]4CCO[C@@H]43)c12` (stereo partly shown) [Example 2.99], the inhibition at 1 µM in assay [1] was 96%. Also, in assay [2], the IC50 is 5 nM.

Regarding `Cc1cc(N=S(C)(=O)c2ccncc2)cc2ncnc(Nc3ccc(F)cc3O[C@H]3CCOC3)c12` (stereo partly shown) [Example 2.100], in assay [1], the inhibition at 1 µM was 89%. Further, in assay [2], the IC50 was determined as 6 nM.

In the case of `Cc1cc(N=S(C)(=O)C2CCOCC2)cc2ncnc(Nc3ccc(F)cc3O[C@H]3CCOC3)c12` (stereo partly shown) [Example 2.101], the inhibition at 1 µM in assay [1] worked out at 93%. Besides, the IC50 in assay [2] was determined as 5 nM.

In the case of `Cc1cc(N=S(C)(=O)c2cccnc2)cc2ncnc(Nc3ccc(F)cc3O[C@H]3CCOC3)c12` (stereo partly shown) [Example 2.102], the values for the IC50 in assay [1] and in assay [2] were 131 nM and 5 nM, respectively.

With `Cc1cc(N=S(C)(=O)C2CC2)cc2ncnc(Nc3ccc(F)cc3O[C@H]3CCOC3)c12` (stereo partly shown) [Example 2.103], the IC50 in assay [1] amounted to 82 nM; in assay [2] it was 7 nM.

With `Cc1cc(N=S(C)(=O)C(C)C)cc2ncnc(Nc3ccc(F)cc3O[C@H]3CCOC3)c12` (stereo partly shown) [Example 2.104], the inhibition at 1 µM in assay [1] is 95%. In addition, in assay [2], the IC50 was found to be 4 nM.

Regarding `Cc1cc(N=S2(=O)CCC2)cc2ncnc(Nc3ccc(F)cc3O[C@@H]3CO[C@@H]4CCO[C@@H]43)c12` [Example 2.106], the inhibition at 1 µM in assay [1] was found to be 98%. Also, in assay [2], the IC50 was 1 nM.

`Cc1cc(N=S(C)(=O)CCN2CCCC2)cc2ncnc(Nc3ccc(F)cc3O[C@H]3CC[C@H](O)CC3)c12` (stereo partly shown) [Example 2.107]: the values for the IC50 in assay [1] and in assay [2] were 102 nM and 10 nM, respectively.

In the case of `Cc1cc(N=S(C)(=O)C(C)(C)C)cc2ncnc(Nc3ccc(F)cc3O[C@@H]3CO[C@@H]4CCO[C@@H]43)c12` (stereo partly shown) [Example 2.108], in assay [1], the inhibition at 1 µM was determined as 99%. The IC50 in assay [2] came to 3 nM.

On to `Cc1cc(N=S(C)(=O)C(C)C)cc2ncnc(Nc3ccc(F)cc3O[C@@H]3CO[C@@H]4CCO[C@@H]43)c12` (stereo partly shown) [Example 2.109], for which the inhibition at 1 µM in assay [1] stood at 100%. Moreover, the IC50 in assay [2] is 2 nM.

With `Cc1cc(N=S2(=O)CCC2)cc2ncnc(Nc3ccc(F)cc3O[C@H]3CC[C@H](O)CC3)c12` [Example 2.110], the inhibition at 1 µM in assay [1] came out at 100%. Also, in assay [2], the IC50 came to 2 nM.

With `Cc1cc(N=S(C)(=O)C(C)(C)C#N)cc2ncnc(Nc3ccc(F)cc3O[C@H]3CCOC3)c12` (stereo partly shown) [Example 2.111], the inhibition at 1 µM in assay [1] worked out at 89%. Moreover, the IC50 in assay [2] was 5 nM.

With `Cc1cc(N=S(C)(=O)C(C)(C)C)cc2ncnc(Nc3ccc(F)cc3O[C@H]3CCOC3)c12` (stereo partly shown) [Example 2.112], the inhibition at 1 µM in assay [1] amounted to 89%. In assay [2], the IC50 amounted to 6 nM.

With `Cc1cc(N=S(C)(=O)CCN(C)C)cc2ncnc(Nc3ccc(F)cc3O[C@H]3CC[C@H](O)CC3)c12` (stereo partly shown) [Example 2.113], in assay [1], the inhibition at 1 µM is 90%. Further, the IC50 in assay [2] stood at 5 nM.

As for `Cc1cc(N=S(C)(=O)C2CC2)cc2ncnc(Nc3ccc(F)cc3O[C@@H]3CO[C@@H]4CCO[C@@H]43)c12` (stereo partly shown) [Example 2.114], the inhibition at 1 µM in assay [1] is 96%. For the same compound, the IC50 in assay [2] worked out at 2 nM.

As to `Cc1cc(N=S(C)(C)=O)cc2ncnc(Nc3ccc(F)cc3O[C@@H]3CO[C@H]4[C@@H]3OC[C@@H]4F)c12` [Example 2.116], in assay [1], the inhibition at 1 µM came out at 100%. Further, the IC50 in assay [2] came to 2 nM.

Take `Cc1cc(N=S2(=O)CCCC2)cc2ncnc(Nc3ccc(F)cc3O[C@@H]3CO[C@H]4[C@@H]3OC[C@@H]4F)c12` [Example 2.117]: in assay [1], the inhibition at 1 µM turned out to be 101%. For the same compound, in assay [2], the IC50 turned out to be 1 nM.

On to `Cc1cc(N=S(C)(C)=O)cc2ncnc(Nc3ccc(F)cc3OC3COCOC3)c12` [Example 2.120], for which the inhibition at 1 µM in assay [1] stood at 103%. Also, the IC50 in assay [2] turned out to be 2 nM.

As to `Cc1cc(N=S(C)(C)=O)cc2ncnc(Nc3ccc(F)cc3O[C@@H]3CO[C@@H]4CCO[C@@H]43)c12` [Example 2.121], the inhibition at 1 µM in assay [1] is 89%. Also, in assay [2], the IC50 was 4 nM.

With `Cc1cc(N=S(C)(C)=O)cc2ncnc(Nc3ccc(F)cc3O[C@@H]3CO[C@@H]4CCC[C@@H]43)c12` [Example 2.122], in assay [1], the inhibition at 1 µM turned out to be 98%. Moreover, the IC50 in assay [2] came to 2 nM.

For the compound `Cc1cc(N=S2(=O)CCCC2)cc2ncnc(Nc3ccc(F)cc3O[C@@H]3CO[C@@H]4CCC[C@@H]43)c12` [Example 2.123], the inhibition at 1 µM in assay [1] amounted to 100%. Further, in assay [2], the IC50 was 1 nM.

For the compound `Cc1cc(N=S(C)(C)=O)cc2ncnc(Nc3ccc(F)cc3O[C@@H]3CC[C@@H]4OCC[C@@H]43)c12` [Example 2.124], the inhibition at 1 µM in assay [1] stood at 83%. In assay [2], the IC50 is 4 nM.

For `Cc1cc(N=S2(=O)CCCC2)cc2ncnc(Nc3ccc(F)cc3O[C@@H]3CC[C@@H]4OCC[C@@H]43)c12` [Example 2.125], the inhibition at 1 µM in assay [1] amounted to 94%. In assay [2], the IC50 came out at 2 nM.

As for `Cc1cc(N=S(C)(C)=O)cc2ncnc(Nc3ccc(F)cc3OC3COC3)c12` [Example 2.126], the inhibition at 1 µM in assay [1] came to 93%. In assay [2], the IC50 was determined as 10 nM.

For `CS(C)(=O)=Nc1cc(F)c2c(Nc3cccnc3O[C@@H]3CCCNC3)ncnc2c1` [Example 3.1], the inhibition at 1 µM in assay [1] was found to be 50%. Also, the IC50 in assay [2] was 111 nM.

Turning to `Cc1cc(N=S(C)(C)=O)cc2ncnc(Nc3cccnc3O[C@H]3CC[C@H](N)CC3)c12` [Example 3.2], the inhibition at 1 µM in assay [1] was determined as 101%. Besides, in assay [2], the IC50 worked out at 4 nM.

With `Cc1cc(N=S2(=O)CCNCC2)cc2ncnc(Nc3ccc(F)cc3O[C@@H]3CO[C@H]4[C@@H]3OC[C@H]4O)c12` [Example 3.3], the inhibition at 1 µM in assay [1] came to 95%. Moreover, the IC50 in assay [2] came out at 5 nM.

Regarding `CS(C)(=O)=Nc1cc(F)c2c(Nc3cccnc3O[C@H]3CC[C@H](N)CC3)ncnc2c1` [Example 3.5], in assay [1], the inhibition at 1 µM worked out at 101%. Further, the IC50 in assay [2] amounted to 5 nM.

For the compound `Cc1cc(N=S(C)(C)=O)cc2ncnc(Nc3cccnc3O[C@@H]3CCCNC3)c12` [Example 3.6], the inhibition at 1 µM in assay [1] was 80%. Also, the IC50 in assay [2] came out at 69 nM.
